Source: patent publication US9533991B2, “Inhibitors of Bruton's tyrosine kinase” (PHARMACYCLICS LLC, priority 2014, dated 2017)

Experiments:
Type in all cases: biochemical
[1] = molecular target: T1, Btk (Homo sapiens, UniProt Q06187); assay: Inhibition of a panel of kinases: Btk; settings: kinase panel, Table 2
Description: (§1) The degree of inhibition of a panel of kinases is determined using assays similar to the kinase assay described in Example 53.

[2] = molecular target: EGFR (Homo sapiens, UniProt P00533); assay: Inhibition of a panel of kinases: EGFR; settings: kinase panel, Table 2
Description: as §1

[3] = molecular target: LCK (Homo sapiens, UniProt P06239); assay: Inhibition of a panel of kinases: LCK; settings: kinase panel, Table 2
Description: as §1

[4] = molecular target: T1, Btk; assay: Btk in vitro inhibitory activity (Method A, B or C); parameters: purified from insect cells as a full-length construct containing a N-terminal 6×-His tag; His6 (N); made in house; host or cells: insect cells (baculovirus, Sf21); settings: one of the methods of Example 53a, 53b, 53c
Description: Btk kinase activity is determined using a time-resolved fluorescence resonance energy transfer (TR-FRET) methodology. Measurements are performed in a reaction volume of 50 μL using 96-well assay plates. Kinase enzyme, inhibitor, ATP (at the Km for the kinase), and 1 μM peptide substrate (Biotin-AVLESEEELYSSARQ-NH2 (SEQ ID NO: 1)) are incubated in a reaction buffer composed of 20 mM Tris, 50 mM NaCl, MgCl2 (5-25 mM depending on the kinase), MnCl2 (0-10 mM), 1 mM DTT, 0.1 mM EDTA, 0.01% bovine serum albumin, 0.005% Tween-20, and 10% DMSO at pH 7.4 for one hour. The reaction is quenched by the addition of 1.2 equivalents of EDTA (relative to divalent cation) in 25 μL of 1× Lance buffer (Perkin-Elmer). Streptavidin-APC (Perkin-Elmer) and Eu-labeled p-Tyr100 antibody (Perkin-Elmer) in 1× Lance buffer are added in a 25 μL volume to give final concentrations of 100 nM and 2.5 nM, respectively, and the mixture is allowed to incubate for one hour. The TR-FRET signal is measured on a multimode plate reader with an excitation wavelength (λEx) of 330 nm and detection wavelengths (λEm) of 615 and 665 nm. Activity is determined by the ratio of the fluorescence at 665 nm to that at 615 nm. For each compound, enzyme activity is measured at various concentrations of compound. Negative control reactions are performed in the absence of inhibitor in replicates of six, and two no-enzyme controls are used to determine baseline fluorescence levels. Inhibition constants, Ki(app), ware obtained using the program BatchKi (Kuzmic et al. (2000), Anal. Biochem. 286:45-50). IC50s are obtained according to the equation: IC50={Ki(app)/1+[ATP]/Km^ATP)}+[E]total/2;
For all kinases, [ATP]=Km^ATP, [Btk]total=0.5 nM and [Lck]total=6 nM.
Kinase activity is measured in vitro using electrophoretic mobility shift assay. The kinase reactions are assembled in a total volume of 25 μL in 384 well plates. The reactions comprise: BTK enzyme (1 nM, N-terminal His6-tagged, recombinant, full-length, human BTK purified from baculovirus Sf21 insect cell system), inhibitor, ATP (16 μM, the apparent Km for the kinase), fluorescently labeled peptide substrate (1 μM, FAM-GEEPLYWSFPAKKK-NH2 (SEQ ID NO: 2)) in a reaction buffer composed of 100 mM HEPES, pH7.5, 5 mM MgCl2 1 mM DTT, 0.1% bovine serum albumin, 0.01% Triton X-100, and 1% DMSO. The reaction is incubated for one hour and is quenched by the addition of 45 μL of termination buffer (100 mM HEPES, pH7.5, 0.01% Triton X-100, 30 mM EDTA). The terminated reactions are analyzed using 12 channel LabChip® 3000 microfluidic detection instrument (Caliper Life Sciences). The enzymatic phosphorylation of the peptide results in a change in net charge, enabling electrophoretic separation of product from substrate peptide. As substrate and product peptides are separated, two peaks of fluorescence are observed. Change in the relative fluorescence intensity of the substrate and product peaks is the parameter measured, reflecting enzyme activity. In the presence of an inhibitor, the ratio between product and substrate is altered: the signal of the product decreases, while the signal of the substrate increases.
Activity in each sample is determined as the product to sum ratio (PSR):P/(S+P), where P is the peak height of the product peptide and S is the peak height of the substrate peptide. For each compound, enzyme activity is measured at various concentrations (12 concentrations of compound spaced by 3× dilution intervals). Negative control samples (0%−inhibition in the absence of inhibitor) and positive control samples (100%−inhibition, in the presence of 20 mM EDTA) are assembled in replicates of four and are used to calculate %−inhibition values for each inhibitor at each concentration. Percent inhibition (Pinh) is determined using following equation: […]

T1 sequence (Q06187 whole entry): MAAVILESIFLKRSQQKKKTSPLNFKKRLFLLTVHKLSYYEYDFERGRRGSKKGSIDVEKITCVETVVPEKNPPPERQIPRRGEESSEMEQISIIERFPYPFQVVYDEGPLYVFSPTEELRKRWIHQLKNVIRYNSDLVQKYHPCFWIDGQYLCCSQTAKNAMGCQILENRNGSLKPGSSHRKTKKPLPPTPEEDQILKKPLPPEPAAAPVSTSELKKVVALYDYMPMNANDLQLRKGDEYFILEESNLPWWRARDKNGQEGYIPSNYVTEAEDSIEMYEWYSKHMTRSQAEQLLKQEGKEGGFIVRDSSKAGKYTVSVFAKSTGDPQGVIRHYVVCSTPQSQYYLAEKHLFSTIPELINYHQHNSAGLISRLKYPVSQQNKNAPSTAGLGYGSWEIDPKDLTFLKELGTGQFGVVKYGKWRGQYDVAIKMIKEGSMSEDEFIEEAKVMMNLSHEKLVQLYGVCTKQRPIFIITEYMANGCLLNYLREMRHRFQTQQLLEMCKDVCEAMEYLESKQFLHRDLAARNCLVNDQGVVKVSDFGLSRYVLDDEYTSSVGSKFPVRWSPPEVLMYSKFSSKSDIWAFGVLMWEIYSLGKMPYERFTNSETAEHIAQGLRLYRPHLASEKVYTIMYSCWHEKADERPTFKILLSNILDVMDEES
Chain of EGFR (P00533 25-1210, species assumed): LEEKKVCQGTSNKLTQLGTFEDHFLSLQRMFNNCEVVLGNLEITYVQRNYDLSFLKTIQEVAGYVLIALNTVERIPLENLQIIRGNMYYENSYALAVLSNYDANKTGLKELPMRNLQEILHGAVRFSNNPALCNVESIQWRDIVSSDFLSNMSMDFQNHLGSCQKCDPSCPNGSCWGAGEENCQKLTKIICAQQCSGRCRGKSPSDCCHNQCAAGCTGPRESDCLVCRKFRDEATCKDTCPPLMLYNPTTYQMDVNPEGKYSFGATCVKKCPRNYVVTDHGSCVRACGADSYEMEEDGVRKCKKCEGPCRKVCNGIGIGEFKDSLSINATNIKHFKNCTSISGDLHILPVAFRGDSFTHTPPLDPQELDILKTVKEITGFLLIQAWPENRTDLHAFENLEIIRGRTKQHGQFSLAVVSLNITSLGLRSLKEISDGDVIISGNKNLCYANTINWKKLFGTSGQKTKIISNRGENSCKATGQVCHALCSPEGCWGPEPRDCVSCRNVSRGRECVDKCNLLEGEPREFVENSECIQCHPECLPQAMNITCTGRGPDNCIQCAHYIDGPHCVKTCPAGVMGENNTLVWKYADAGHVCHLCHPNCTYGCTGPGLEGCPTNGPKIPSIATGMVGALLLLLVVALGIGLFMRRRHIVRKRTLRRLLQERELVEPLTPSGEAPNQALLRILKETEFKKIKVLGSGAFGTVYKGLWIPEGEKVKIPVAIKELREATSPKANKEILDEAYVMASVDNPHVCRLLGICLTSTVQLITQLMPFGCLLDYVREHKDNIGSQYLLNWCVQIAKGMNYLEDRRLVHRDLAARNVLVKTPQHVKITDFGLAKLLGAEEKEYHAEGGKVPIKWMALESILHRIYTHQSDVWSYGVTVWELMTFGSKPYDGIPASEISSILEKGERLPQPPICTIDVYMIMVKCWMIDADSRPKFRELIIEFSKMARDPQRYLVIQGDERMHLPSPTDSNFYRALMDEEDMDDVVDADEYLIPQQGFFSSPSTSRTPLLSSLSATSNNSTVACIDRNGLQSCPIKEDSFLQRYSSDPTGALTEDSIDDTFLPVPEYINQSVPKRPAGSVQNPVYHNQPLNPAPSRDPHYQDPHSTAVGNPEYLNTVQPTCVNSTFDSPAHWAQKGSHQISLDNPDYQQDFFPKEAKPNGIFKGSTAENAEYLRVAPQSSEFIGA
Chain of LCK (P06239 whole entry, species assumed): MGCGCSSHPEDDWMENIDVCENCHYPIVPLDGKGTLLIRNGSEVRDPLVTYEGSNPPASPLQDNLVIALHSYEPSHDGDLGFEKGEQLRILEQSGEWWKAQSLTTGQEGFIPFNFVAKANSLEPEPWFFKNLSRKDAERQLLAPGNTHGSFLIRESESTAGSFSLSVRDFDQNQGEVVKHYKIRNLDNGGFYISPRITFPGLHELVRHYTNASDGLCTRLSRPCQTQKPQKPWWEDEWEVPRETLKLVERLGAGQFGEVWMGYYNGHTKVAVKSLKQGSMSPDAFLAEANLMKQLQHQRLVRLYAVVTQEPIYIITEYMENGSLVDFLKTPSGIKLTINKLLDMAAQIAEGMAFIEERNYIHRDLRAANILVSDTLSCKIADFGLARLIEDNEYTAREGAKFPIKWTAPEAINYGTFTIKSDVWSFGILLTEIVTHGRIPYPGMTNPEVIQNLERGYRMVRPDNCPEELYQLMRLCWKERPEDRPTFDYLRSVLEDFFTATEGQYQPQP

| Compound | IC50 [1] [nM] | IC50 [2] [nM] | IC50 [3] [nM] | IC50 [4] [nM] |
| --- | --- | --- | --- | --- |
| CC#CC(=O)N1CC[C@@H](n2nc(-c3ccc(C(=O)Nc4cc(CCC)ccn4)cc3)c3c(N)ncnc32)C1 [Compound ID 9, (R)-4-(4-amino-1-(1-but-2-ynoylpyrrolidin-3-yl)-1H-pyrazolo[3,4-d]pyrimidin-3-yl)-N-(4-propylpyridin-2-yl)benzamide] | ≤ 10 | ≤ 10 | 100 to 1000 | ≤ 10 |
| CC#CC(=O)N1CCC[C@@H](n2nc(-c3ccc(C(=O)Nc4ccccn4)cc3)c3c(N)ncnc32)C1 [Compound ID 10, (R)-4-(4-amino-1-(1-but-2-ynoylpiperidin-3-yl)-1H-pyrazolo[3,4-d]pyrimidin-3-yl)-N-(pyridin-2-yl)benzamide] | ≤ 10 | ≤ 10 | 100 to 1000 | ≤ 10 |
| CC#CC(=O)N1CCC[C@@H](n2nc(-c3ccc(C(=O)Nc4cc(C)ccn4)cc3)c3c(N)ncnc32)C1 [Compound ID 11, (R)-4-(4-amino-1-(1-but-2-ynoylpiperidin-3-yl)-1H-pyrazolo[3,4-d]pyrimidin-3-yl)-N-(4-methylpyridin-2-yl)benzamide] | ≤ 10 | 10 to 100 | 10 to 100 | ≤ 10 |
| CC#CC(=O)N1CCC[C@@H](n2nc(-c3ccc(C(=O)Nc4cc(C(F)(F)F)ccn4)cc3)c3c(N)ncnc32)C1 [Compound ID 12, (R)-4-(4-amino-1-(1-but-2-ynoylpiperidin-3-yl)-1H-pyrazolo[3,4-d]pyrimidin-3-yl)-N-(4-(trifluoromethyl)pyridin-2-yl)benzamide] | ≤ 10 | 100 to 1000 | 10 to 100 | ≤ 10 |
| CC#CC(=O)N1CCC[C@@H](n2nc(-c3ccc(C(=O)Nc4cc(CCC)ccn4)cc3)c3c(N)ncnc32)C1 [Compound ID 13, (R)-4-(4-amino-1-(1-but-2-ynoylpiperidin-3-yl)-1H-pyrazolo[3,4-d]pyrimidin-3-yl)-N-(4-propylpyridin-2-yl)benzamide] | ≤ 10 | 100 to 1000 | ≤ 10 | ≤ 10 |
| CC#CC(=O)N1CCC[C@@H](n2nc(-c3ccc(C(=O)Nc4cc(C#N)ccn4)cc3)c3c(N)ncnc32)C1 [Compound ID 14, (R)-4-(4-amino-1-(1-but-2-ynoylpiperidin-3-yl)-1H-pyrazolo[3,4-d]pyrimidin-3-yl)-N-(4-cyanopyridin-2-yl)benzamide] | ≤ 10 | 100 to 1000 | 10 to 100 | ≤ 10 |
| CC#CC(=O)N1CC[C@@H](n2nc(-c3ccc(C(=O)Nc4nccs4)cc3)c3c(N)ncnc32)C1 [Compound ID 15, (R)-4-(4-amino-1-(1-but-2-ynoylpyrrolidin-3-yl)-1H-pyrazolo[3,4-d]pyrimidin-3-yl)-N-(thiazol-2-yl)benzamide] | ≤ 10 | ≤ 10 | 100 to 1000 | ≤ 10 |
| COCC#CC(=O)N1CC[C@@H](n2nc(-c3ccc(C(=O)Nc4ccccn4)cc3)c3c(N)ncnc32)C1 [Compound ID 18, (R)-4-(4-amino-1-(1-(4-methoxybut-2-ynoyl)pyrrolidin-3-yl)-1H-pyrazolo[3,4-d]pyrimidin-3-yl)-N-(pyridin-2-yl)benzamide] | ≤ 10 | ≤ 10 | 10 to 100 | – |
| Nc1ncnc2c1c(-c1ccc(C(=O)Nc3ccccn3)cc1)nn2[C@@H]1CCN(C(=O)C#CCO)C1 [Compound ID 19, (R)-4-(4-amino-1-(1-(4-hydroxybut-2-ynoyl)pyrrolidin-3-yl)-1H-pyrazolo[3,4-d]pyrimidin-3-yl)-N-(pyridin-2-yl)benzamide] | ≤ 10 | 10 to 100 | 100 to 1000 | – |
| C=CC(=O)N1CC[C@@H](n2nc(-c3ccc(C(=O)Nc4cc(C#N)ccn4)cc3)c3c(N)ncnc32)C1 [Compound ID 24, (R)-4-(1-(1-acryloylpyrrolidin-3-yl)-4-amino-1H-pyrazolo[3,4-d]pyrimidin-3-yl)-N-(4-cyanopyridin-2-yl)benzamide] | – | – | – | ≤ 10 |
| C=CC(=O)N1CCC[C@@H](n2nc(-c3ccc(C(=O)Nc4ccccn4)cc3)c3c(N)ncnc32)C1 [Compound ID 25, (R)-4-(1-(1-acryloylpiperidin-3-yl)-4-amino-1H-pyrazolo[3,4-d]pyrimidin-3-yl)-N-(pyridin-2-yl)benzamide] | – | – | – | ≤ 10 |
| C=CC(=O)N1CCC[C@@H](n2nc(-c3ccc(C(=O)Nc4cc(C(C)C)ccn4)cc3)c3c(N)ncnc32)C1 [Compound ID 28, (R)-4-(1-(1-acryloylpiperidin-3-yl)-4-amino-1H-pyrazolo[3,4-d]pyrimidin-3-yl)-N-(4-isopropylpyridin-2-yl)benzamide] | – | – | – | ≤ 10 |
| C=CC(=O)N1CCC[C@@H](n2nc(-c3ccc(C(=O)Nc4cc(C#N)ccn4)cc3)c3c(N)ncnc32)C1 [Compound ID 29, (R)-4-(1-(1-acryloylpiperidin-3-yl)-4-amino-1H-pyrazolo[3,4-d]pyrimidin-3-yl)-N-(4-cyanopyridin-2-yl)benzamide] | – | – | – | ≤ 10 |
| C/C=C/C(=O)N1CC[C@@H](n2nc(-c3ccc(C(=O)Nc4cc(C)ccn4)cc3)c3c(N)ncnc32)C1 [Compound ID 32, (R,E)-4-(4-amino-1-(1-but-2-enoylpyrrolidin-3-yl)-1H-pyrazolo[3,4-d]pyrimidin-3-yl)-N-(4-methylpyridin-2-yl)benzamide] | – | – | – | ≤ 10 |
| CC(C)=CC(=O)N1CC[C@@H](n2nc(-c3ccc(C(=O)Nc4cc(C)ccn4)cc3)c3c(N)ncnc32)C1 [Compound ID 33, (R)-4-(4-amino-1-(1-(3-methylbut-2-enoyl)pyrrolidin-3-yl)-1H-pyrazolo[3,4-d]pyrimidin-3-yl)-N-(4-methylpyridin-2-yl)benzamide] | – | – | – | > 10 |
| Nc1ncnc2c1c(-c1ccc(C(=O)Nc3cc(C(F)(F)F)ccn3)cc1)nn2[C@@H]1CCN(C(=O)C#CCO)C1 [Compound ID 49, (R)-4-(4-amino-1-(1-(4-hydroxybut-2-ynoyl)pyrrolidin-3-yl)-1H-pyrazolo[3,4-d]pyrimidin-3-yl)-N-(4-(trifluoromethyl)pyridin-2-yl)benzamide] | – | – | – | ≤ 10 |
| COCC#CC(=O)N1CC[C@@H](n2nc(-c3ccc(C(=O)Nc4cc(C(F)(F)F)ccn4)cc3)c3c(N)ncnc32)C1 [Compound ID 50, (R)-4-(4-amino-1-(1-(4-methoxybut-2-ynoyl)pyrrolidin-3-yl)-1H-pyrazolo[3,4-d]pyrimidin-3-yl)-N-(4-(trifluoromethyl)pyridin-2-yl)benzamide] | – | – | – | ≤ 10 |
| N#CC1(C(=O)N2CC[C@@H](n3nc(-c4ccc(C(=O)Nc5ccccn5)cc4)c4c(N)ncnc43)C2)CC1 [Compound ID 52, (R)-4-(4-amino-1-(1-(1-cyanocyclopropanecarbonyl)pyrrolidin-3-yl)-1H-pyrazolo[3,4-d]pyrimidin-3-yl)-N-(pyridin-2-yl)benzamide] | 100 to 1000 | – | – | > 10 |
